Data on 15 compounds can be found in patent publication US9856237B2, “Pyrazine derivatives” (TEIJIN PHARMA LIMITED, priority 2014, dated 2018).

For the first assay, the system named is cebus apella. Kind of assay: Testing drug efficacy in Cebus apella (uric acid excretion rate). The note with it: 3 mg/kg to 30 mg/kg in 0.5% methylcellulose, from the nasal cavity to the stomach. The assay is classed as in vivo. As for the experimental part: Testing Drug Efficacy in Cebus Apella A test compound (3 mg/kg to 30 mg/kg) dispersed in a 0.5% methylcellulose solution was administered to cebus apella from the nasal cavity to the stomach using a disposable catheter and a syringe barrel. Blood samples were taken before administration and 30 minutes, 1 hour, 2 hours, 4 hours, 8 hours, 12 hours, and 24 hours after administration; and urine samples were collected for the time intervals of from immediately after to 4 hours after administration, from 4 hours to 8 hours after administration, from 8 hours to 16 hours after administration, and from 16 hours to 24 hours after administration. Concentrations of uric acid and creatinine in the blood and urine samples collected were measured by an automatic analyzer (JEOL Ltd.). Uric acid and creatinine were measured respectively using L-type Wako UA•F (Wako Pure Chemicals Industries, Ltd.) and L-type Creatinine F (Wako Pure Chemicals Industries, Ltd.). Uric acid clearance was calculated from the uric acid concentrations in blood and urine and, similarly, creatinine clearance was calculated from the creatinine concentrations. Based on these values, the uric acid excretion rate was determined according to the following equation: Uric acid excretion rate (%)=(uric acid clearance/creatinine clearance)×100
For the compound `Cc1nc(-c2cnccn2)n(Cc2cc(Cl)sc2Cl)c1C(=O)O` [Compound A11, 1-((2,5-dichlorothiophene-3-yl)methyl)-4-methyl-2-(pyrazin-2-yl)-1H-imidazole-5-carboxylic acid], the “activity to promote uric acid excretion” value is recorded as “excellent activity”.

The target in the next assay is T1, human URAT1 (Homo sapiens, UniProt Q96S37).
T1 construct: Full-length cDNA of human URAT1 (hURAT1); host or cells: HEK 293 cells, stably transfected and selected by Geneticin resistance
T1 sequence (Q96S37 1-553): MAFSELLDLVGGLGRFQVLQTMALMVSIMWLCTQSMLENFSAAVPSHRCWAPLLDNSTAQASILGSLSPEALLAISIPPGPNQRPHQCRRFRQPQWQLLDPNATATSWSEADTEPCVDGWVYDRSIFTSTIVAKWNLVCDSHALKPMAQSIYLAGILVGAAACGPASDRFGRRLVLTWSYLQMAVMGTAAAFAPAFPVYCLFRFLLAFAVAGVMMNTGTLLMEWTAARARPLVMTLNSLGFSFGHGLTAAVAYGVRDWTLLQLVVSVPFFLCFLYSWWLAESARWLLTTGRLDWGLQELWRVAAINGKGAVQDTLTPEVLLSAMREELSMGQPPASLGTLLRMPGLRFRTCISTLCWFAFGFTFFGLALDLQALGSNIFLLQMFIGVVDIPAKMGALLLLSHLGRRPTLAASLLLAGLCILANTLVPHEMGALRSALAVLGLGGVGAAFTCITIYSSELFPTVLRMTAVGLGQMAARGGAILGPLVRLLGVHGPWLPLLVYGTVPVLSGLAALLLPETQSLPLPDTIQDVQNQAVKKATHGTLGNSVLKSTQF
Kind of assay: Test for inhibition of uric acid transport using human URAT1-expressing cells. The assay is classed as cell-based. The following applies: HEK 293 cells expressing human URAT1; 14C-labeled uric acid 25 μM; uptake 37° C. for 5 min; read-out: Inhibitory activity (IC50, concentration at which the uric acid transport rate is inhibited by 50%). On the procedure: Test for Inhibition of Uric Acid Transport Using Human URAT1-Expressing Cells
A test compound was dissolved in DMSO (produced by Sigma) to a concentration of 20 mM and was subsequently used by adjusting the concentration to a desired value for use.
Full-length cDNA of human URAT1 (hURAT1) (produced by OriGene Technologies, Inc., NCBI Reference Sequence: NM-144585) was subcloned into an expression vector, pCMV6-Kan/Neo (produced by OriGene Technologies, Inc.), and human URAT1 genes were transfected into human embryonic kidney-derived cells (HEK 293 cells) by a liposome method using Lipofectamine 2000 (produced by Invitrogen Corporation), whereupon HEK 293 cells expressing human URAT1 genes were selected on the basis of Geneticin resistance. Functional expression of human URAT1 genes was confirmed by using transport of ^14C-labeled uric acid into the cells as an index.
The HEK 293 cells expressing human URAT1 were seeded in a 24-well cell culture dish to a density of 3×10^5 cells/mL/well and were cultured in Dulbecco's modified Eagle's medium (D-MEM medium) containing 10% fetal bovine serum at 37° C. for 2 days. Thereafter, the following test for inhibition of uric acid transport was performed.
After the medium was removed by aspiration from each well, the cells were replaced with a solution obtained by substituting NaCl in Hanks' Balanced Salt Solution (HBSS) with Na gluconate (hereinafter, HBSS/Na-gluconate), and the cells were preincubated at 37° C. for about 10 minutes. After removing the HBSS/Na-gluconate by aspiration, a ^14C-uric acid solution containing various concentrations of the Example compound listed in Table 4 and a radioactive ligand (^14C-labeled uric acid; final concentration 25 μM) was added, and an uptake reaction was carried out by incubating at 37° C. for 5 min. After the reaction, the ^14C-labeled uric acid was removed by aspiration and the cells were washed three times with ice-cooled HBSS. The HEK 293 cells expressing human URAT1 were lysed in a 0.2 mol/L aqueous NaOH solution (hereafter, the cell sample) and sampled from the well. The cell sample and a liquid scintillation cocktail, ULTIMA GOLD (produced by PerkinElmer, Inc.) were mixed, and the radioactivity was measured by a liquid scintillation counter (manufactured by Beckman Coulter, Inc.).
The uric acid transport rate of the Example compound at each concentration (% of control uptake) was calculated relative to the radioactivity (radioactivity in human URAT1 expressing HEK 293 cells without addition of the Example compound (DMSO addition)) showing URAT1-specific uric acid transport as 100%, and the concentration (IC50) of the Example compound at which the uric acid transport rate is inhibited by 50% was determined. In addition, the symbols (*, **, and ***) in the table represent the following inhibitory activity values: • IC50≦0.2 μM: *** • 0.2 μM<IC50≦2 μM: ** • 2 μM<IC50≦20 μM: *
Take `Cc1nc(-c2cncc(C(C)C)n2)n(Cc2cc(Cl)ccc2Cl)c1C(=O)O` [Compound A9, 1-(2,5-dichlorobenzyl)-2-(6-isopropylpyrazin-2-yl)-4-methyl-1H-imidazole-5-carboxylic acid]: the IC50 is not above 200 nM.

For the compound `Cc1nc(-c2cncc(C#N)n2)n(Cc2cc(Cl)ccc2Cl)c1C(=O)O` [Compound A8, 2-(6-cyanopyrazin-2-yl)-1-(2,5-dichlorobenzyl)-4-methyl-1H-imidazole-5-carboxylic acid], the IC50 was not above 200 nM.

Regarding `Cc1cncc(-c2nc(C)c(C(=O)O)n2Cc2cc(Cl)ccc2Cl)n1` [Compound A2, 1-(2,5-dichlorobenzyl)-4-methyl-2-(6-methylpyrazin-2-yl)-1H-imidazole-5-carboxylic acid], the IC50 is not above 200 nM.

For the compound `Cc1cncc(-c2nc(C)c(C(=O)O)n2Cc2cc(Cl)sc2Cl)n1` [Compound A12, 1-((2,5-dichlorothiophene-3-yl)methyl)-4-methyl-2-(6-methylpyrazin-2-yl)-1H-imidazole-5-carboxylic acid], the IC50 was not above 200 nM.

As for `O=C(O)c1ccc(-c2cnccn2)n1Cc1cc(Cl)ccc1Cl` [Compound A15, 1-(2,5-dichlorobenzyl)-2-(pyrazin-2-yl)-1H-pyrrole-5-carboxylic acid], the IC50 was not above 200 nM.

On to `Cc1nc(-c2cncc(C3CC3)n2)n(Cc2cc(Cl)ccc2Cl)c1C(=O)O` [Compound A10, 2-(6-cyclopropylpyrazin-2-yl)-1-(2,5-dichlorobenzyl)-4-methyl-1H-imidazole-5-carboxylic acid], for which the IC50 is not above 200 nM.

With `Cc1nc(-c2cncc(Oc3ccccc3)n2)n(Cc2cc(Cl)ccc2Cl)c1C(=O)O` [Compound A6, 1-(2,5-dichlorobenzyl)-4-methyl-2-(6-phenoxypyrazin-2-yl)-1H-imidazole-5-carboxylic acid], the IC50 was not above 200 nM.

As to `CCc1cncc(-c2nc(C)c(C(=O)O)n2Cc2cc(Cl)ccc2Cl)n1` [Compound A3, 1-(2,5-dichlorobenzyl)-2-(6-ethylpyrazin-2-yl)-4-methyl-1H-imidazole-5-carboxylic acid], the IC50 is not above 200 nM.

Consider `COc1cccc(F)c1Oc1cncc(-c2nc(C)c(C(=O)O)n2Cc2ccccc2)n1` [Compound A14, 1-benzyl-2-(6-(2-fluoro-6-methoxyphenoxy)pyrazin-2-yl)-4-methyl-1H-imidazole-5-carboxylic acid], for which the IC50 is not above 200 nM.

For `Cc1nc(-c2cncc(-c3ccccc3)n2)n(Cc2cc(Cl)ccc2Cl)c1C(=O)O` [Compound A4, 1-(2,5-dichlorobenzyl)-4-methyl-2-(6-phenylpyrazin-2-yl)-1H-imidazole-5-carboxylic acid], the IC50 was not above 200 nM.

`CCOc1cncc(-c2nc(C)c(C(=O)O)n2Cc2cc(Cl)ccc2Cl)n1` [Compound A7, 1-(2,5-dichlorobenzyl)-2-(6-ethoxypyrazin-2-yl)-4-methyl-1H-imidazole-5-carboxylic acid]: the IC50 was not above 200 nM.

On to `COc1cccc(F)c1Oc1cncc(-c2nc(C)c(C(=O)O)n2Cc2cc(Cl)ccc2Cl)n1` [Compound A13], for which the IC50 was 200 to 2000 nM.

With `Cc1nc(-c2cnccn2)n(Cc2cc(Cl)sc2Cl)c1C(=O)O` [Compound A11, 1-((2,5-dichlorothiophene-3-yl)methyl)-4-methyl-2-(pyrazin-2-yl)-1H-imidazole-5-carboxylic acid], the IC50 was not above 200 nM.

With `COc1cncc(-c2nc(C)c(C(=O)O)n2Cc2cc(Cl)ccc2Cl)n1` [Compound A5, 1-(2,5-dichlorobenzyl)-2-(6-methoxypyrazin-2-yl)-4-methyl-1H-imidazole-5-carboxylic acid], the IC50 is not above 200 nM.

Turning to `Cc1nc(-c2cnccn2)n(Cc2cc(Cl)ccc2Cl)c1C(=O)O` [Compound A1, 1-(2,5-dichlorobenzyl)-4-methyl-2-(pyrazin-2-yl)-1H-imidazole-5-carboxylic acid], the IC50 is not above 200 nM.
